Results published in patent US4575560A, “Insecticidal diaminoguanidine hydrazone compounds” (American Cyanamid Company, priority 1985, dated 1986).

Key:
Southern Armyworm = assay: Southern armyworm test, third-instar larvae on treated Sieva lima bean leaves; assay type: in vivo, Spodoptera eridania (Cramer); conditions: third-instar larvae
Procedure: Test formulations and procedures used for evaluation are as follows:
A. 100 mg of the test material is weighed, placed in a funnel over a 113 g narrow-mouth bottle, rinsed into the bottle with a 35 mL scoop of acetone, followed by a 35 mL scoop of water and another 35 mL scoop of acetone to yield 1000 ppm in 65% acetone. If the material is not soluble, it is broken up with a glass rod and used as a suspension.
B. This stock solution ("A") is used to make 300 ppm solutions or suspensions by pipetting 30 mL of "A" into a bottle containing 70 mL of 50% acetone to yield 300 ppm. Further dilutions in 50% acetone are made as required.
C. Tests requiring 10 ppm acetone solutions: 1 mL of "A" is pipetted into 99 mL of acetone to yield 10 ppm. Additional dilutions are made using 50% acetone as required.
Southern Armyworm--Spodoptera eridania (Cramer)
A Sieva lima bean plant with just the primary leaves expanded to 1.91 cm is dipped for three seconds with agitation in the "A" solution of 1000 ppm and set in the hood to dry. Following this, one leaf is placed in a 9 cm petri dish which has a moist filter paper in the bottom and 10 third-instar armyworm larvae about 1 cm long. This dish is covered and held at 80° F., and 50% r.h. After two days, mortality counts and estimates of the amount of feeding are made. Compounds showing partial kill and/or inhibition of feeding are held for an extra day for further observations.
All compounds showing activity as defined above are retested, using the second leaf on the bean plant, after an interval of seven days from original treatment, as an assay of residual activity.

[1] = test system: Tobacco Budworm 3rd Instar; assay: Tobacco budworm secondary test, third-instar larvae on treated cotton cotyledons; assay type: in vivo, Heliothis virescens (Fabricus)
Procedure: Tobacco Budworm--Heliothis virescens (Fabricus)
Three cotton plants with just expanded cotyledons are dipped in 1000 ppm solution and placed in the hood to dry. When dry, each cotyledon is cut in half, and 10 are each placed in a 28 g plastic medicine cup containing a 1.25 cm dental wick saturated with water, and one third-instar budworm larva is added. The cup is capped and held for three days at 80° F., 50% relative humidity, after which mortality counts are made.

Row | SMILES | Mortality Rating Southern Armyworm (Southern Armyworm; 100 ppm) | Mortality Rating Southern Armyworm (Southern Armyworm; 1000 ppm) | Mortality Rating Tobacco Budworm 3rd Instar ([1]; 1000 ppm) | reduced feeding (R) Tobacco Budworm 3rd Instar ([1]; 1000 ppm) | Mortality Rating Southern Armyworm (Southern Armyworm; 10 ppm) | Mortality Rating Tobacco Budworm 3rd Instar ([1]; 100 ppm) | reduced feeding (R) Tobacco Budworm 3rd Instar ([1]; 100 ppm) | Mortality Rating Tobacco Budworm 3rd Instar ([1]; 10 ppm)
1 | N=C(NN=Cc1ccc(Br)cc1)NN=Cc1ccc(OC(F)(F)C(F)F)cc1 [Br / HCF2 CF2 O / B] | 9 (100%) | 9 (100%) | 0 (No effect) | R |  |  |  | 
2 | N=C(NN=Cc1ccc(Br)cc1)NN=Cc1ccc(C(F)(F)F)cc1 [CF3 / Br / B] | 9 (100%) | 9 (100%) | 0 (No effect) | R | 9 (100%) |  |  | 
3 | N=C(NN=Cc1ccc(Br)cc1)NN=Cc1ccc(C(F)(F)F)cc1 [CF3 / Br / S] |  | 9 (100%) | 0 (No effect) | R | 0 (No effect) | 0 (No effect) | R | 
4 | CCCOC(=O)N(N=Cc1ccc(C(F)(F)F)cc1)C(=N)NN=Cc1ccc(C(F)(F)F)cc1 [CF3 / CF3 / -n-C3 H7] | 9 (100%) | 9 (100%) | 0 (No effect) |  | 4 (46-55%) |  |  | 
5 | CCCCOC(=O)N(N=Cc1ccc(C(F)(F)F)cc1)C(=N)NN=Cc1ccc(C(F)(F)F)cc1 [CF3 / CF3 / -n-C4 H9] | 0 (No effect) | 9 (100%) | 0 (No effect) |  |  |  |  | 
6 | N=C(NN=Cc1ccc(C(F)(F)F)cc1)N(N=Cc1ccc(C(F)(F)F)cc1)C(=O)OCCBr [CF3 / CF3 / BrCH2 CH2] | 0 (No effect) | 9 (100%) | 0 (No effect) |  | 0 (No effect) |  |  | 
7 | CCOC(=O)N(N=Cc1ccc(C(F)(F)F)cc1)C(=N)NN=Cc1ccc(C(F)(F)F)cc1 [CF3 / CF3 / C2 H5, 3-[p-(trifluoromethyl)benzylidene]-2-{{[p-(trifluoromethyl)benzylidene]amino}amidino}carbazate] | 7 (76-85%) | 9 (100%) |  |  | 9 (100%) |  |  | 
8 | C=CCOC(=O)N(N=Cc1ccc(C(F)(F)F)cc1)C(=N)NN=Cc1ccc(C(F)(F)F)cc1 [CF3 / CF3 / CH2CHCH2] | 9 (100%) | 9 (100%) | 0 (No effect) | R | 0 (No effect) | 0 (No effect) |  | 
9 | COC(=O)N(N=Cc1ccc(C(F)(F)F)cc1)C(=N)NN=Cc1ccc(C(F)(F)F)cc1 [CF3 / CF3 / CH3] | 9 (100%) | 9 (100%) | 6 (66-75%) |  | 3 (36-45%) |  |  | 
10 | CC(C)(OC(=O)N(N=Cc1ccc(C(F)(F)F)cc1)C(=N)NN=Cc1ccc(C(F)(F)F)cc1)C(Cl)(Cl)Cl [CF3 / CF3 / Cl3 CC(CH3)2] | 9 (100%) | 9 (100%) | 9 (100%) |  | 0 (No effect) | 0 (No effect) | R | 0 (No effect)
11 | N=C(NN=Cc1ccc(C(F)(F)F)cc1)N(N=Cc1ccc(C(F)(F)F)cc1)C(=O)OCC(Cl)(Cl)Cl [CF3 / CF3 / Cl3 CCH2] | 9 (100%) | 9 (100%) | 8 (86-99%) |  | 8 (86-99%) | 0 (No effect) | R | 0 (No effect)
12 | N=C(NN=Cc1ccc(C(F)(F)F)cc1)N(N=Cc1ccc(C(F)(F)F)cc1)C(=O)OCCCl [CF3 / CF3 / ClCH2 CH2, 3-[p-(trifluoromethyl)benzylidene]-2-{{[p-(trifluoromethyl)benzylidene]amino}amidino}carbazate ester] | 9 (100%) | 9 (100%) | 2 (26-35%) | R | 8 (86-99%) | 0 (No effect) |  | 
13 | CCC(C)OC(=O)N(N=Cc1ccc(C(F)(F)F)cc1)C(=N)NN=Cc1ccc(C(F)(F)F)cc1 (centres unmarked) [CF3 / CF3 / drawing 54] | 9 (100%) | 9 (100%) | 6 (66-75%) | R | 6 (66-75%) | 0 (No effect) | R | 
14 | N=C(NN=Cc1ccc(Cl)cc1)NN=Cc1ccc(C(F)(F)F)cc1 [CF3 / Cl / B] | 9 (100%) | 9 (100%) | 4 (46-55%) | R |  | 0 (No effect) | R | 0 (No effect)
15 | CCOC(=O)N(N=Cc1ccc(Cl)cc1)C(=N)NN=Cc1ccc(Cl)cc1 [Cl / Cl / C2 H5] | 9 (100%) | 8 (86-99%) |  |  |  |  |  | 
16 | N=C(NN=Cc1ccc(Cl)cc1)NN=Cc1ccc(OC(F)(F)C(F)F)cc1 [Cl / HCF2 CF2 O / S] |  |  | 0 (No effect) | R |  |  |  | 
17 | COC(=O)N(N=Cc1ccc(OC(F)(F)C(F)F)cc1)C(=N)NN=Cc1ccc(OC(F)(F)C(F)F)cc1 [HCF2 CF2 O / HCF2 CF2 O / CH3] | 9 (100%) | 9 (100%) |  |  |  |  |  | 
18 | N=C(NN=Cc1ccc(SC(F)(F)C(F)F)cc1)NN=Cc1ccc(SC(F)(F)C(F)F)cc1 [HCF2 CF2 S / S] |  |  |  |  | 6 (66-75%) |  |  | 
